Patent publication US20220274979A1 (Bayer Pharma Aktiengesellschaft, priority 2018, published 2022)

Columns and labels:
[1] = target: T1, hSOS1 (hSOS1-mediated nucleotide exchange of hK-RasG12C) (Homo sapiens, UniProt Q07889); assay: Biochemical Assay 2: hK-RasG12C activation assay by hSOS1 at high GTP concentration (HTRF nucleotide exchange); settings: high GTP (50 μM GTP)
T1 construct: hSOS1 (amino acid 564-1049); made in house; host or cells: E. coli BL21 (DE3)
T1 sequence (Q07889 with tags, fused parts or gaps): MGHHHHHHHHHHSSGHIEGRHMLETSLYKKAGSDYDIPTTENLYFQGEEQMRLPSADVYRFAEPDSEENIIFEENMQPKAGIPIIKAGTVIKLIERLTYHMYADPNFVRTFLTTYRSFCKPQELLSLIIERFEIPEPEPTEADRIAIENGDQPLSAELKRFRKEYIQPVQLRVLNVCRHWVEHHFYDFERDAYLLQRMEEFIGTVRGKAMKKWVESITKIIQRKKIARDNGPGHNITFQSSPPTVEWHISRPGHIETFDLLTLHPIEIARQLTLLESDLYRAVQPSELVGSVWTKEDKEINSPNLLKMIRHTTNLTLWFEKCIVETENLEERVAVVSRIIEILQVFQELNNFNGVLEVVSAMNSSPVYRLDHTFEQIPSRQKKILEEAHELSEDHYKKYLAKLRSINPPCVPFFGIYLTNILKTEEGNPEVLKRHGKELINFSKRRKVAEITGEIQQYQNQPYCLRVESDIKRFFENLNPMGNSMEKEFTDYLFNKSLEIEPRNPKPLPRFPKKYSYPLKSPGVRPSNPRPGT

[2] = target: T2, hK-RasG12C - hSOS1 interaction (Homo sapiens, UniProt Q07889); assay: Biochemical Assay 1: hK-RasG12C interaction assay with hSOS1 (HTRF); type: binding; settings: for inhibition at 20 µM: read-out: Assay 1 (hKRAS, hSOS Interaction) activity (expressed as IC50, or as % inhibition at 20 μM); for IC50: values expressed as IC50
T2 construct: hSOS1 (amino acid 564-1049); made in house; host or cells: E. coli BL21 (DE3)
T2 sequence (Q07889 with tags, fused parts or gaps): T1 sequence (Q07889 with tags, fused parts or gaps)
In short: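 HTRF signal between GST-hK-RasG12C (10 nM working solution, anti-GST-Eu) and His-hSOS1 (20 nM working solution, anti-6His-XL665) was read in HEPES pH 7.4 buffer with 10 mM EDTA, 1 mM DTT and 100 mM KF at 20 °C.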

Which IC50 [1] does the source give for `COc1ccc2nc(C)nc(N[C@H](C)c3cccc(Br)c3)c2n1` [Example 28, N-[(1R)-1-(3-bromophenyl)ethyl]-6-methoxy-2-methylpyrido[3,2-d]pyrimidin-4-amine] here?
Its IC50 is > 20000 nM.

And the inhibition at 20 µM [2]?
Its inhibition at 20 µM is 49.8%.

How did the IC50 [1] turn out when `CCOc1cc2c(N[C@H](C)c3cccc(Cl)c3)nc(C)nc2cn1` [Example 6] was run?
The IC50 was 1120 nM.

And the IC50 [2]?
Its IC50 is 393 nM.

Which IC50 [1] does the source give for `Cc1nc(NC(C)c2ccc(-c3ccccc3CN(C)C)s2)c2cc(N3CC(NS(=O)(=O)Cc4ccccc4)C3)ncc2n1` (centres unmarked) [Example 95, N-[1-(4-{[1-(5-{2-[(dimethylamino)methyl]phenyl}thiophen-2-yl)ethyl]amino}-2-methylpyrido[3,4-d]pyrimidin-6-yl)azetidin-3-yl]-1-phenylmethanesulfonamide] here?
The IC50 was 240 nM.

What about the IC50 [2] of the same molecule?
The IC50 was 107 nM.

For `Cc1nc(NC(C)c2ccc(-c3ccccc3CN(C)C)s2)c2cc(NCCN3CCOCC3)ncc2n1` (centres unmarked) [Example 48], which IC50 [1] is on record?
Its IC50 is 141 nM.

And the IC50 [2]?
Its IC50 is 38.8 nM.

`CCOc1ncc2nc(C)nc(N[C@H](C)c3cccc(Br)c3)c2n1` [Example 23, N-[(1R)-1-(3-bromophenyl)ethyl]-6-ethoxy-2-methylpyrimido[5,4-d]pyrimidin-4-amine] was tested. Which IC50 [1] did it give?
Its IC50 is 4450 nM.

And the IC50 [2]?
The IC50 was 4350 nM.

Which results are given for `CCOc1ccc2nc(C)nc(N[C@H](C)c3cccc(Br)c3)c2n1` [Example 29, N-[(1R)-1-(3-bromophenyl)ethyl]-6-ethoxy-2-methylpyrido[3,2-d]pyrimidin-4-amine]?
IC50 [1]: > 20000 nM; IC50 [2]: 17400 nM

With `COc1cc2c(NC(C)c3cccc4sccc34)nc(C)nc2cn1` (centres unmarked) [Example 4, N-[1-(1-benzothiophen-4-yl)ethyl]-6-methoxy-2-methylpyrido[3,4-d]pyrimidin-4-amine] as the molecule, how does the IC50 [1] read?
The IC50 was 423 nM.

What about the IC50 [2] of the same molecule?
Its IC50 is 355 nM.

With `Cc1nc(NC(C)c2ccc(Br)s2)c2cc(F)ncc2n1` (centres unmarked) [Example 35] as the molecule, how does the IC50 [1] read?
Its IC50 is > 20000 nM.

What about the inhibition at 20 µM [2] of the same molecule?
The inhibition at 20 µM was 23.5%.

Which IC50 [1] does the source give for `CSc1cc2c(NC(C)c3ccc(-c4ccccc4CN(C)C)s3)nc(C)nc2cn1` (centres unmarked) [Example 59, N-[1-(5-{2-[(dimethylamino)methyl]phenyl}thiophen-2-yl)ethyl]-2-methyl-6-(methylsulfanyl)pyrido[3,4-d]pyrimidin-4-amine] here?
The IC50 was 67.9 nM.

And the IC50 [2]?
Its IC50 is 66.2 nM.

Which results are given for `Cc1nc(N[C@H](C)c2cccc(Br)c2)c2cc(NCCn3cccn3)ncc2n1` [Example 49, N4-[(1R)-1-(3-bromophenl)pethyl]-2-methyl-N6-[2-(1H-pyrazol-1-yl)ethyl]pyrido[3,4-d]pyrimidine-4,6-diamine]?
IC50 [1]: 3630 nM; IC50 [2]: 1210 nM
